Results from PubChem BioAssay AID1963826 (Molecular Pharmacology Branch, DTP, NCI, 2024).

System: 926638-142-R-J1-PDC complex spheroid viability
Experiment: Anticancer human tumor 926638-142-R-J1-PDC patient-derived endometrial carcinoma cell line growth inhibition [POLQ]
Details: for IC50: curve of first compound; for viability, T/C: stronger effect = lower value
How it was run: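 Complex spheroid viability model combining PDC tumour cells with endothelial (HUVEC) and MSC stromal cells. Novobiocin, ART-558 or RP6685 were tested singly and in combination with standard and investigational anticancer drugs. Each was titrated in half-log steps from near clinical Cmax, or from 10 microM where Cmax was unknown.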

[1] = second compound 0.0316 µM, first compound 0.0316 µM
[2] = second compound 0.0316 µM, first compound 0.1 µM
[3] = second compound 0.0316 µM, first compound 0.316 µM
[4] = second compound 0.0316 µM, first compound 1 µM
[5] = second compound 0.0316 µM, first compound 3.16 µM
[6] = second compound 0.0316 µM, first compound 10 µM
[7] = second compound 0.1 µM, first compound 0.0316 µM
[8] = second compound 0.1 µM, first compound 0.1 µM
[9] = second compound 0.1 µM, first compound 0.316 µM
[10] = second compound 0.1 µM, first compound 1 µM
[11] = second compound 0.1 µM, first compound 3.16 µM
[12] = second compound 0.1 µM, first compound 10 µM
[13] = second compound 0.316 µM, first compound 0.0316 µM
[14] = second compound 0.316 µM, first compound 0.1 µM
[15] = second compound 0.316 µM, first compound 0.316 µM
[16] = second compound 0.316 µM, first compound 1 µM
[17] = second compound 0.316 µM, first compound 3.16 µM
[18] = second compound 0.316 µM, first compound 10 µM
[19] = second compound 1 µM, first compound 0.0316 µM
[20] = second compound 1 µM, first compound 0.1 µM
[21] = second compound 1 µM, first compound 0.316 µM
[22] = second compound 1 µM, first compound 1 µM
[23] = second compound 1 µM, first compound 3.16 µM
[24] = second compound 1 µM, first compound 10 µM
[25] = second compound 3.16 µM, first compound 0.0316 µM
[26] = second compound 3.16 µM, first compound 0.1 µM
[27] = second compound 3.16 µM, first compound 0.316 µM
[28] = second compound 3.16 µM, first compound 1 µM
[29] = second compound 3.16 µM, first compound 3.16 µM
[30] = second compound 3.16 µM, first compound 10 µM
[31] = second compound 10 µM, first compound 0.0316 µM
[32] = second compound 10 µM, first compound 0.1 µM
[33] = second compound 10 µM, first compound 0.316 µM
[34] = second compound 10 µM, first compound 1 µM
[35] = second compound 10 µM, first compound 3.16 µM
[36] = second compound 10 µM, first compound 10 µM
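Further: spheroids exposed to drugs for one week before readout.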
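Wherever viability, T/C is given: percent viability relative to DMSO vehicle control wells set as 100%.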

COc1cc(C2c3cc4c(cc3C(OC3OC5COC(C)OC5C(O)C3O)C3COC(=O)C23)OCO4)cc(OC)c1O (stereo unspecified) + Cc1cccc(N(C)C(=O)C2C(O)CCN2c2nc(C)cc(C(F)(F)F)c2C#N)c1
IC50 (second compound 0.0316 µM): > 10000 nM
IC50 (second compound 0.1 µM): > 10000 nM
IC50 (second compound 0.316 µM): > 10000 nM
IC50 (second compound 1 µM): > 10000 nM
IC50 (second compound 3.16 µM): > 10000 nM
IC50 (second compound 10 µM): > 10000 nM
viability, T/C [1]: 83.5%
viability, T/C [2]: 62.5%
viability, T/C [3]: 72%
viability, T/C [4]: 73%
viability, T/C [5]: 56%
viability, T/C [6]: 60.1%
viability, T/C [7]: 76.8%
viability, T/C [8]: 71.4%
viability, T/C [9]: 72.3%
viability, T/C [10]: 62.7%
viability, T/C [11]: 67.7%
viability, T/C [12]: 56%
viability, T/C [13]: 95.5%
viability, T/C [14]: 84.1%
viability, T/C [15]: 77%
viability, T/C [16]: 57.6%
viability, T/C [17]: 63.9%
viability, T/C [18]: 49.1%
viability, T/C [19]: 89.3%
viability, T/C [20]: 80.8%
viability, T/C [21]: 72.2%
viability, T/C [22]: 77.9%
viability, T/C [23]: 67.8%
viability, T/C [24]: 61.3%
viability, T/C [25]: 75.8%
viability, T/C [26]: 71.8%
viability, T/C [27]: 69.9%
viability, T/C [28]: 79.3%
viability, T/C [29]: 62.7%
viability, T/C [30]: 50.2%
viability, T/C [31]: 80.1%
viability, T/C [32]: 83.9%
viability, T/C [33]: 73.6%
viability, T/C [34]: 70.9%
viability, T/C [35]: 59%
viability, T/C [36]: 60.6%

COc1cccc2c1C(=O)c1c(O)c3c(c(O)c1C2=O)CC(O)(C(=O)CO)CC3OC1CC(N)C(O)C(C)O1 (stereo unspecified) + COC1C(OC(N)=O)C(O)C(Oc2ccc3c(O)c(NC(=O)c4ccc(O)c(CC=C(C)C)c4)c(=O)oc3c2C)OC1(C)C
IC50 (second compound 0.0316 µM): 94.1 nM
IC50 (second compound 0.1 µM): 167 nM
IC50 (second compound 0.316 µM): 129 nM
IC50 (second compound 1 µM): 128 nM
IC50 (second compound 3.16 µM): 133 nM
IC50 (second compound 10 µM): 154 nM
viability, T/C [1]: 73.2%
viability, T/C [2]: 48.3%
viability, T/C [3]: 17.7%
viability, T/C [4]: 1.39%
viability, T/C [5]: 0.18%
viability, T/C [6]: 0.28%
viability, T/C [7]: 81%
viability, T/C [8]: 74.1%
viability, T/C [9]: 19.9%
viability, T/C [10]: 3.56%
viability, T/C [11]: 0.18%
viability, T/C [12]: 0.25%
viability, T/C [13]: 81.6%
viability, T/C [14]: 59.9%
viability, T/C [15]: 15.9%
viability, T/C [16]: 1.61%
viability, T/C [17]: 0.22%
viability, T/C [18]: 0.17%
viability, T/C [19]: 72.9%
viability, T/C [20]: 59.8%
viability, T/C [21]: 14%
viability, T/C [22]: 2.68%
viability, T/C [23]: 0.17%
viability, T/C [24]: 0.21%
viability, T/C [25]: 74.3%
viability, T/C [26]: 61.1%
viability, T/C [27]: 16.2%
viability, T/C [28]: 3.97%
viability, T/C [29]: 0.21%
viability, T/C [30]: 0.21%
viability, T/C [31]: 90.7%
viability, T/C [32]: 69%
viability, T/C [33]: 18%
viability, T/C [34]: 2.23%
viability, T/C [35]: 0.25%
viability, T/C [36]: 0.26%

CCc1cc2c(N3CCc4c(cc(Cn5ccnc5)cc4-c4cn(C)nc4C(F)(F)F)C3=O)cc(C)nc2c(OC)n1 + Nc1ccc(C#CCN(C(=O)Cc2ncc(C(F)(F)F)cc2C(F)(F)F)c2ccc(F)cc2)nn1
IC50 (second compound 0.0316 µM): 1130 nM
IC50 (second compound 0.1 µM): 426 nM
IC50 (second compound 0.316 µM): 829 nM
IC50 (second compound 1 µM): 478 nM
IC50 (second compound 3.16 µM): 728 nM
IC50 (second compound 10 µM): 503 nM
viability, T/C [1]: 86.9%
viability, T/C [2]: 66.6%
viability, T/C [3]: 65.4%
viability, T/C [4]: 43.6%
viability, T/C [5]: 51.3%
viability, T/C [6]: 33.6%
viability, T/C [7]: 90.7%
viability, T/C [8]: 66.7%
viability, T/C [9]: 52.7%
viability, T/C [10]: 40.9%
viability, T/C [11]: 42.1%
viability, T/C [12]: 28.2%
viability, T/C [13]: 83%
viability, T/C [14]: 70.4%
viability, T/C [15]: 55%
viability, T/C [16]: 47.8%
viability, T/C [17]: 44.1%
viability, T/C [18]: 27.6%
viability, T/C [19]: 69.3%
viability, T/C [20]: 69.8%
viability, T/C [21]: 56.6%
viability, T/C [22]: 37.9%
viability, T/C [23]: 43.5%
viability, T/C [24]: 30.1%
viability, T/C [25]: 76.3%
viability, T/C [26]: 58.2%
viability, T/C [27]: 57%
viability, T/C [28]: 47.2%
viability, T/C [29]: 46.9%
viability, T/C [30]: 31.6%
viability, T/C [31]: 60.2%
viability, T/C [32]: 63.8%
viability, T/C [33]: 53.8%
viability, T/C [34]: 39.6%
viability, T/C [35]: 42%
viability, T/C [36]: 27.2%
